# Results published in patent US4883863A, “Tripeptide derivatives and antiplasmin agents containing the same” (Nitto Boseki Co., Ltd., priority 1987, dated 1989).
# Structures can show the parent of a compound that is named as a salt. Where a SMILES comes first, the peptide text is derived from it. [ ]: non-standard residue; d: D form. The star is where a group is joined. Tos = Cc1ccc(S(=O)(=O)*)cc1; Moc = COC(=O)*; For = O=C*
# What was measured:
# Assay type in all cases: biochemical
# human Factor Xa = target: T1, human Factor Xa (Homo sapiens, UniProt P00742); experiment: Factor Xa-inhibiting activity, synthetic substrate PS-2000; conditions: Table 4; PS-2000, pH 8.5, 37° C.
# T1 construct: purchased Boehringer Manheim Co., Ltd
# T1 sequence (P00742 235-488 limits assumed): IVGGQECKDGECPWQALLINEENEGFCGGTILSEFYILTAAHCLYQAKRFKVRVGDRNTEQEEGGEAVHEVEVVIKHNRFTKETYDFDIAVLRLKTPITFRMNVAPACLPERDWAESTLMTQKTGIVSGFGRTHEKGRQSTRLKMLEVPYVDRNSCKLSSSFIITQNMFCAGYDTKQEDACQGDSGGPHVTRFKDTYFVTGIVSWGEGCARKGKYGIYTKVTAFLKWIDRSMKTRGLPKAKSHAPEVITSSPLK
# T1 sequence (P00742 41-179 partner limits assumed): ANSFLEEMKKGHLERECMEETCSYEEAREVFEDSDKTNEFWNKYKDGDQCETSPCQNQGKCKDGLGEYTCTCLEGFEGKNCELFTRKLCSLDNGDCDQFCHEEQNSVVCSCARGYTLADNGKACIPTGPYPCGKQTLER
# From the text: (§1) Synthetic substrates used for testing the inhibitory activity of the inhibitors on decomposition of substrates by the enzymes were as follows. For plasmin, PS-994 (H--D--Lys(Tos)--Phe--Lys--CHA·2HCl, mfd. by NITTO BOSEKI Co., Ltd.) was used; for thrombin and trypsin, PS-915 (H--D--Phe--Pro--Arg--CHA·2HCl, mfd. by NITTO BOSEKI Co., Ltd.); for Factor Xa, PS-2000 (Z--D--Lys--(HCO)--Gly--Arg--CHA·HCl, mfd. by NITTO BOSEKI Co., Ltd.); and for kallikrein, S-2302 (H--D--Pro--Phe--Arg--pNA, mfd., by Kabi Co., Ltd.).
# (§2) As plasmin, standard plasmin of Sankyo Color Test α2 -D1 Kit was used in an amount of 0.3CU/ml. As thrombin, that of Sankyo Color Test ATIII kit was used in an amount of 1.2 NIHU/ml. As trypsin, that of cord 3703 of Worthington was used in an amount of 2 μg/ml. As human Factor Xa, that of Boehringer Manheim Co., Ltd. was used in an amount of 0.25 U/ml. As human plasma kallikrein, that of Kabi Co., Ltd. was used in an amount of 0.12 U/ml. As terminating color reagents, those for Sankyo Color Test Kit were used. The reactions were carried out at 37° C. unless otherwise specified.
# Each of aqueous solutions (1 ml) of the inhibitors which solutions were various in their respective concentrations was added to 0.3 ml of a buffer solution (a 150 mM aqueous sodium chloride solution containing 50 mM Tris, pH 8.5 ), and the resulting solution was heated for 5 minutes. Then, 0.1 ml of a Factor Xa solution (a 150 mM aqueous sodium chloride solution containing 50 mM Tris and 20 mM calcium chloride, pH 8.5) was added, followed by incubation for 5 minutes. Subsequently, a 5% polyvinyl pyrrobidone solution (0.1 ml) containing 10 mM PS-2000 was added, followed by incubation for 5 min. Thereafter, 2 ml of terminating color reagent was added. After standing for 10 minutes, absorbance at 700 nm was measured and IC50 was determined in the manner described above.
# plasmin [1] = target: T2, plasmin (Homo sapiens, UniProt P00747); experiment: Plasmin-inhibiting activity, synthetic substrate PS-994; parameters: purchased Sankyo (Color Test α2 -D1 Kit); conditions: Table 4; PS-994, pH 7.8, 37° C.
# From the text: as §1, §2
# Target sequence in this assay (P00747 581-810 limits assumed, species assumed): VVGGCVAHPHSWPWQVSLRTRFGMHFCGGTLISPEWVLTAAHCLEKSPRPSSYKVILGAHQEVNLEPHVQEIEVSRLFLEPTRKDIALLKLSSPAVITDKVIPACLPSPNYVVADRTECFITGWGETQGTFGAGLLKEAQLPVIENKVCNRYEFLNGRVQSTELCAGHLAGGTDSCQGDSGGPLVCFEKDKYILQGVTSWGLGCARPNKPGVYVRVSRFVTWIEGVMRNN
# Target sequence in this assay (P00747 97-580 partner limits assumed, species assumed): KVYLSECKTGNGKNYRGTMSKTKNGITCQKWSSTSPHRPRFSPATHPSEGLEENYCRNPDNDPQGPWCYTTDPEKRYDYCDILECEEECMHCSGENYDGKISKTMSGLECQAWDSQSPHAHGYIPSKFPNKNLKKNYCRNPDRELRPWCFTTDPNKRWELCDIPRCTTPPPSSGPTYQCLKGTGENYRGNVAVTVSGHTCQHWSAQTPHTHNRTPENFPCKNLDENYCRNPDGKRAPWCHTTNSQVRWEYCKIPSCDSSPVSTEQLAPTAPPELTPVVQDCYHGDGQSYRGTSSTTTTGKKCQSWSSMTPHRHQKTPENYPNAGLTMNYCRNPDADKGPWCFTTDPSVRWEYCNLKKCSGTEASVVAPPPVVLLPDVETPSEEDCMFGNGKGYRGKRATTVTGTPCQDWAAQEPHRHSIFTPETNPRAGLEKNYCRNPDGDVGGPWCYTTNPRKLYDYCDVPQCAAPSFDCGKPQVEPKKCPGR
# Each of aqueous solutions (0.1 ml) of the inhibitors which solutions were various in their respective concentrations was added to 0.4 ml of a buffer solution (a 150 mM aqueous sodium chloride solution containing 100 mM Tris, pH 7.8), and the resulting solution was heated for 5 minutes. To this solution was added 0.2 ml of plasmin solution, followed by incubation for 5 minutes, and then 0.1 ml of a PS-994 solution (10 mM) was added, and then incubated for 5 minutes. After completion of the reaction, 2.0 ml of terminating color reagent was added, and after standing for 10 minutes, absorbance at 700 nm was measured. A concentration of the inhibitor in the reaction system at which the absorbance was one-half that obtained in the absence of the inhibitor was determined as IC50.
# plasmin [2] = target: T2, plasmin; experiment: Inhibitory activity on fibrinogen decomposition by plasmin (natural substrate); parameters: purchased Sankyo (Color Test α2 -D1 Kit); conditions: Table 4; 2% fibrinogen, pH 7.2, 37° C.
# Method: The determination was carried out by a modification of the method described in Takaaki Aoyagi. "Koso Sogai Busshitsu (Enzyme Inhibiting Substances)" Kyoritsu Zensho, p. 12.
# To 0.3 ml of phosphate buffer (pH 7.2) was added 0.1 ml of an aqueous solution of each inhibitor, and the resulting solution was heated at 37° C. for 5 minutes. Then, 0.1 ml of a plasmin solution (12 CU/ml) was added, followed by incubation for 5 minutes. Subsequently, 0.7 ml of phosphate buffer (pH 7.2) containing 2% fibrinogen was added, followed by incubation for 15 minutes. After completion of the reaction, a 12% aqueous hydrochloride acid solution (1.5 ml) containing 6% trichloroacetic acid was added, and the resulting mixture was lightly shaken, allowed to stand at room temperature for 15 minutes, and then centrifuged (3000 r.p.m., 10 minutes). The absorbance of the supernatant was measured at 280 nm, and a concentration of the inhibitor at which the absorbance was the same as when the amount of the enzyme added was reduced by half was determined as IC50.
# Target sequence in this assay (P00747 581-810 limits assumed, species assumed): as the sequence (P00747 581-810 limits assumed, species assumed) above
# Target sequence in this assay (P00747 97-580 partner limits assumed, species assumed): as the sequence (P00747 97-580 partner limits assumed, species assumed) above
# plasmin [3] = target: T2, plasmin; experiment: Inhibitory activity on fibrin decomposition by plasmin (natural substrate); parameters: Standard human serum (0.1 ml); from tissue; conditions: Table 4; concentration doubling time for complete dissolution, 25° C.
# Method: The determination was carried out by the method of Okamoto et al. (see Keio Journal of Medicine, vol. 11, p. 105 (1962).
# Standard human serum (0.1 ml), 0.4 ml of each of 1/20 M potassium phosphate sodium physiological salt buffer solutions (pH 7.4) containing various concentrations of each inhibitor, and 0.1 ml of a solution of streptokinase in physiological saline (1000 U/ml) were stirred and then cooled at 0° C. for 10 minutes. Thereto was added 0.05 ml of a solution of thrombin in physiological saline (100 NIHU/ml, mfd. by Parke Davis Co. Ltd.) at 0° C. After standing for 1 minute, 0.3 ml of a 0.33% solution of bovine fibrinogen (F-4753, available from Sigma Chemical Co.) in physiological saline was added, and the resulting mixture was allowed to stand at 25° C. The solubility was measured every minute by the standard of judgement of Nakamura (see Allergy, vol. 5, p. 1 (1956)) and the time required for complete dissolution was determined. A concentration of the inhibitor at which said time is twice that required in the absence of the inhibitor was determined as IC50.
# Target sequence in this assay (P00747 581-810 limits assumed): as the sequence (P00747 581-810 limits assumed, species assumed) above
# Target sequence in this assay (P00747 97-580 partner limits assumed): as the sequence (P00747 97-580 partner limits assumed, species assumed) above
SMILES,IC50 (human Factor Xa),IC50 (plasmin [1]),IC50 (plasmin [2]),IC50 (plasmin [3])
"COC(=O)N[C@H](CCCCNS(=O)(=O)c1ccc(C)cc1)C(=O)N[C@@H](Cc1ccccc1)C(=O)N[C@H](C=O)CCCCN [Compound 2, N-α-Methoxycarbonyl-N-ε-(p-tosyl)-D-lysyl-L-phenylalanyl-L-lysinal hydrochloride] (Moc-[dK](Tos)-Phe-Lys-aldehyde)",22000 nM,7.9 nM,130 nM,230 nM
"Cc1ccc(S(=O)(=O)NCCCC[C@@H](NC=O)C(=O)N[C@@H](Cc2ccccc2)C(=O)N[C@H](C=O)CCCCN)cc1 [Compound 4, N-α-Formyl-N-ε-(p-tosyl)-D-lysyl-L-phenylalanyl-L-lysinal hydrochloride] (For-[dK](Tos)-Phe-Lys-aldehyde)",85000 nM,96 nM,190 nM,240 nM
